Results published in the METLIN SMRT retention time set (Domingo-Almenara et al. 2019).

Assay: gradient 5% acetonitrile 3 min, to 50% in 2 min, to 85% in 15 min, held 3 min, 100 µL/min
Details: column: Zorbax Extend-C18 2.1 x 50 mm; eluents: water / acetonitrile, 0.1% formic acid
How it was run: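 Mixtures of ~100 pure standards were chromatographed on a Zorbax Extend-C18 column (2.1 × 50 mm, 1.8 μm) at 100 μL/min using water and acetonitrile, each with 0.1% formic acid. Detection used a quadrupole time-of-flight mass spectrometer in positive and negative ionization mode, and data collection spanned 3 months. Retention time was obtained from adduct peaks picked computationally and each checked manually.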

Structure (SMILES)	RP-LC retention time
Cc1noc(C)c1S(=O)(=O)N1CCC(CCOc2ccccc2)C1 (stereo not drawn)	1080 s
COc1ccc(-c2c(C)noc2NC(C)=O)cc1S(=O)(=O)NCCc1ccc(Cl)cc1	894 s
O=C1CSc2ccc(S(=O)(=O)N3CCC(C(=O)NC4CCCC4)CC3)cc2N1	746 s
O=C(Nc1ccc2c(c1)OCO2)C1CCCN(S(=O)(=O)c2c[nH]c(C(=O)N3CCCC3)c2)C1 (stereo not drawn)	747 s
Cc1cc(-c2nnc(-c3ccccc3)o2)c(C)n1CC(=O)NCc1ccc(Cl)cc1	982 s
O=C(CC(F)(F)F)N1CCC(c2noc(-c3cccnc3)n2)C1 (stereo not drawn)	643 s
COCc1nc2cccnc2n1C1CCN(C(=O)Nc2ccc(Br)cc2F)CC1	746 s
CCc1ccc(C(=O)Nc2cc(-c3ccn[nH]3)sc2C)cc1	1120 s
Cc1ccc2cc(CCC(=O)N3CCN(C(=O)c4ccco4)CC3)c(=O)[nH]c2c1	655 s
O=C(NCc1ccc(F)cc1)NC1CCCN(c2cc(-c3ccncc3)[nH]n2)C1 (stereo not drawn)	610 s
CCN(CC)C(=O)c1ccc2c(c1)N(CC(=O)N1CCCC1)C(=O)C1CCCCN21 (stereo not drawn)	753 s
O=C(NCCN1CCCC1)C1CCN(c2nccnc2Sc2ccccc2)CC1	645 s
CCN(C(=O)C1CCN(S(=O)(=O)c2ccc3c(c2)NC(=O)CO3)CC1)c1ccc(OC)cc1	788 s
CS(=O)(=O)N1CCC(OC2CCN(C(=O)Nc3cccc(Cl)c3)CC2)CC1	831 s
CC(C)c1nnc(-c2ccc(=O)n(CC(=O)N3CCC4(CC3)OCCO4)c2)o1	609 s
Cn1nc(CNC(=O)c2cccc(Cl)c2)c2ccccc21	938 s
O=C(CC1c2ncccc2C(=O)N1c1ccc(F)cc1)NCc1cc(F)ccc1F (stereo not drawn)	737 s
CCCCC(=O)N1CCN(C2CCN(CCOC)C2=O)CC1 (stereo not drawn)	535 s
O=C(NCC1CCN(C(=O)Oc2ccccc2)CC1)Nc1ccc(C(F)(F)F)cc1	947 s
Cc1ccc(-c2nnc(-c3ccccc3)o2)cc1S(=O)(=O)N1CCCCC1	1100 s
Cc1nc(-c2cc(S(=O)(=O)N3CCC(C(=O)NC4CCCCCCC4)CC3)c(C)s2)no1	1070 s
O=C(NCc1ccccc1C(F)(F)F)C1CCCN(c2ncnc3nn(-c4ccc(F)cc4)cc23)C1 (stereo not drawn)	754 s

Structure (SMILES)	RP-LC retention time
CCN1C=C(C(=O)OCc2ccc(C)cc2)C(C)=NS1(=O)=O	1030 s
CCn1c(C(=O)N2CCN(c3ccccn3)CC2)cc2c(-c3cccs3)nn(-c3ccccc3)c21	776 s
O=S(=O)(CCOc1ccc(F)cc1)Nc1ccc(N2CCOCC2)cc1	767 s
Cc1ncn(CC(=O)Nc2cccc(Cl)c2)c(=O)c1C	705 s
CCOC(=O)c1c(S(=O)(=O)N2CCC(C(=O)Nc3ccc(C)c(C)c3)CC2)c(C)n(CC)c1C	975 s
COc1ccccc1NC(=O)C1CCN(S(=O)(=O)c2c(C)[nH]c(C)c2C(=O)N2CCCC2)CC1	693 s
CCC1CN(C(=O)N2CCC(C(=O)NCCCN3CCCCC3)CC2)c2ccccc2O1 (stereo not drawn)	643 s
Cc1ccc2c(c1)N(C(=O)Cn1c(=O)n(C3CC3)c(=O)c3nscc31)CCO2	773 s
CC1(C)[C@@H]2CC[C@@]1(C(=O)O)C(=O)C2	717 s
COc1ccccc1OCC(O)COC(N)=O (stereo not drawn)	650 s
O=C(NC1(c2nc(-c3ccccc3)no2)CCCCC1)c1cccc(F)c1	1180 s
COc1ccc(-c2noc(C3CC(=O)N(c4ccc(C(C)C)cc4)C3)n2)cc1OC (stereo not drawn)	870 s
CCN(CC)CCNC(=O)CN1C(=O)C2CCCCN2c2ccc(C(=O)N3CCCC3)cc21 (stereo not drawn)	614 s
O=C(c1ccoc1)N1CCC(F)(C(=O)NC2CC2)CC1	569 s
CCN(CC)C(=O)c1ccc2c(c1)N(CC(=O)NCCC1=CCCCC1)C(=O)CS2	864 s
COCCN1C(=O)[C@H]2CN(Cc3cccc(C(F)(F)F)c3)C[C@H]2C1=O	694 s
CCOC(=O)c1ccc(NC(=O)N2CCCC2c2cc(C)on2)cc1 (stereo not drawn)	809 s
Cc1csc(-c2cc(S(=O)(=O)NCC(C)c3ccccc3)c(C)s2)n1 (stereo not drawn)	1110 s
COC(=O)C1=CN(c2ccc(Cl)cc2)c2cc(F)ccc2S1(=O)=O	919 s
CCn1c(=O)c(N2CCN(S(=O)(=O)c3ccc(Cl)s3)CC2)nc2ccncc21	739 s
O=C(Cn1ncc2c(N3CCN(c4ccccn4)CC3)ncnc21)Nc1ccc(F)c(Cl)c1	650 s
CCCc1cc(N2CCN(C(=O)c3ccn(CC)n3)CC2)nc2nnc(CC)n12	616 s

Structure (SMILES)	RP-LC retention time
CCOc1ccc(S(=O)(=O)N2CCC(C(=O)NCc3cccnc3)CC2)cc1	623 s
CCc1cccc(NC(=O)Cn2c(=O)n(-c3cccc(C)c3)c(=O)c3c2cc(C)n3C)c1	966 s
CCOC(=O)c1ccc(NC(=O)c2csc(-c3cn(C)c4ncccc34)n2)cc1	826 s
CCC(=O)N1CCc2cc(C(=O)NCC3CCCO3)ccc21 (stereo not drawn)	642 s
COc1ccccc1CN1CC(=O)N(c2cccc(C)c2)[C@@H]2CS(=O)(=O)C[C@@H]21	819 s
Cc1cc(NC(=O)C(=O)c2ccc[nH]2)ccc1Br	1040 s
O=C(CCC1CCCC1)Nc1nc(-c2ccc3ccccc3c2)cs1	1340 s
CCOc1ccccc1NC(=O)N1CCc2nc(-c3ccccc3)ncc2C1	1010 s
O=C(CCC1NC(=O)c2ccccc2NC1=O)Nc1ncn[nH]1 (stereo not drawn)	521 s
CCC(C)NC(=O)CSc1nc(N2CCc3ccccc3C2)nc2ccccc12 (stereo not drawn)	795 s
COc1ccc(C(=O)N2CCC3(CC2)NC(=O)c2cc(C)ccc2N3C)cc1OC	711 s
Cc1ccc(-n2cc3c(N4CCCC(C(=O)NCc5cc(F)cc(F)c5)C4)ncnc3n2)cc1 (stereo not drawn)	740 s
Cc1ccn2c(Nc3ccc4c(c3)OCCO4)c(-c3cccc(Cl)c3)nc2c1	727 s
CSc1ccc(NC(=O)C2CCCN(c3cnc4nc(C)c(C)nc4c3)C2)cc1 (stereo not drawn)	819 s
CCNC(=O)Cc1nnc(-c2ccc(OC)cc2)o1	634 s
O=C([C@@H]1C[C@H](Oc2ccccc2)CN1C(=O)C1CCC1)N1CCCC1	750 s
Cn1nc(-c2nnc(-c3ccc(F)cc3)o2)c2c1CCN(C(=O)Nc1ccccc1)C2	833 s
CCOC(=O)C1CCN(C(=O)c2sc(Nc3ccc(F)cn3)nc2C)CC1	771 s
Cc1ccc(C2=NC3(CCN(C(=O)c4ccco4)CC3)ON2)cc1	747 s
Cn1c(N2CCC(C(=O)N3CCC(Cc4ccccc4)CC3)CC2)cc(=O)n(C)c1=O	824 s
CCOc1ccccc1-c1noc(Cn2cnc3c(oc4ccccc43)c2=O)n1	914 s
COc1ccc(C2(C(=O)N3CCC(c4nc(CCOCc5ccccc5)no4)C3)CC2)cc1 (stereo not drawn)	958 s

Structure (SMILES)	RP-LC retention time
CC(=O)N1CCc2cc(-c3ccc(C(=O)N4CCN(C(=O)c5ccco5)CC4)cc3)ccc21	662 s
CC1(C)C(=O)N(CC(=O)Nc2ccccc2F)c2ccccc21	869 s
COC1CN(c2cccc(F)c2)C12CCN(Cc1ccccn1)CC2 (stereo not drawn)	699 s
Cc1cccc(-c2nc(-c3ccc(-n4ccnc4)nc3)no2)c1	814 s
Cc1cc(N2CCN(C(=O)c3cncc(Br)c3)CC2)nc2ccccc12	623 s
c1ccc(-c2csc(Nc3cccnc3)n2)cc1	674 s
CC1CCN(c2ccc(-c3cccc(NC(=O)NCc4ccccc4)c3)nn2)CC1	747 s
O=C(O)c1nnn(-c2ccc3c(c2)OCO3)c1-c1ccncc1	612 s
Cc1cccc(S(=O)(=O)N2CCCN(c3ccc(=O)n(-c4ccc(F)cc4)n3)CC2)c1	865 s
Cn1cnc([N+](=O)[O-])c1Sc1n[nH]c(N)n1	599 s
COc1cccc(OC)c1OCC(O)CN1CCN(c2ccccc2F)CC1 (stereo not drawn)	684 s
CO[C@@H](C(=O)N1Cc2[nH]nc(NC(=O)c3ccc(N4CCN(C)CC4)cc3)c2C1)c1ccccc1	614 s
Cc1sc(-c2nc(C(C)C)cs2)cc1S(=O)(=O)N1CCCCC1	1310 s
CCN(c1ccccc1)S(=O)(=O)c1cc2c3c(c1)CCC(=O)N3CCC2	910 s
Cc1cc(C(=O)N2CCCCC2)c2c(=O)n(Cc3ccc4nonc4c3)c(=O)n(C)c2n1	902 s
Cc1ccc(C)c(N2CCN(C(=O)c3cc(C)n4nccc4n3)CC2)c1	986 s
Cc1ccc(-n2c(N3CCCC(C(=O)NC(C)c4cccnc4)C3)nc3ccsc3c2=O)cc1 (stereo not drawn)	633 s
O=C1Nc2ccccc2SC1C(=O)N1CCC(C(=O)N2CCN(c3ccccn3)CC2)CC1 (stereo not drawn)	596 s
CCN1CCN(S(=O)(=O)c2ccc(/C=C\c3onc(C)c3NC(=O)C3CC3)cc2)CC1	639 s
CC(C)NC(=O)c1ccc(OCC2CCCN2C(=O)c2ccco2)cc1 (stereo not drawn)	757 s
Cc1ccc(C)c(NC(=O)C2CCCN(S(=O)(=O)c3c[nH]c(C(=O)N4CCCC4)c3)C2)c1 (stereo not drawn)	821 s
COc1ccc(Cl)cc1NC(=O)c1[nH]c(C)c(S(=O)(=O)N2CCCC2)c1C	1040 s
